Earlier results in patent US8980929B2, “Substituted seven-membered heterocyclic compounds as dipeptidyl peptidase-iv inhibitors for the treatment of diabetes” (Merck Sharp & Dohme Corp., priority 2010, dated 2015).

How the values were obtained:
[1] = target: DPP-4 (Homo sapiens (Human), UniProt P27487)
[2] = system: cardiac allograft; settings: rats; doubled from day 7
[3] = system: hematopoiesis; settings: mouse, cyclophosphamide-induced neutropenia

Chain of DPP-4 (P27487 whole entry, species assumed): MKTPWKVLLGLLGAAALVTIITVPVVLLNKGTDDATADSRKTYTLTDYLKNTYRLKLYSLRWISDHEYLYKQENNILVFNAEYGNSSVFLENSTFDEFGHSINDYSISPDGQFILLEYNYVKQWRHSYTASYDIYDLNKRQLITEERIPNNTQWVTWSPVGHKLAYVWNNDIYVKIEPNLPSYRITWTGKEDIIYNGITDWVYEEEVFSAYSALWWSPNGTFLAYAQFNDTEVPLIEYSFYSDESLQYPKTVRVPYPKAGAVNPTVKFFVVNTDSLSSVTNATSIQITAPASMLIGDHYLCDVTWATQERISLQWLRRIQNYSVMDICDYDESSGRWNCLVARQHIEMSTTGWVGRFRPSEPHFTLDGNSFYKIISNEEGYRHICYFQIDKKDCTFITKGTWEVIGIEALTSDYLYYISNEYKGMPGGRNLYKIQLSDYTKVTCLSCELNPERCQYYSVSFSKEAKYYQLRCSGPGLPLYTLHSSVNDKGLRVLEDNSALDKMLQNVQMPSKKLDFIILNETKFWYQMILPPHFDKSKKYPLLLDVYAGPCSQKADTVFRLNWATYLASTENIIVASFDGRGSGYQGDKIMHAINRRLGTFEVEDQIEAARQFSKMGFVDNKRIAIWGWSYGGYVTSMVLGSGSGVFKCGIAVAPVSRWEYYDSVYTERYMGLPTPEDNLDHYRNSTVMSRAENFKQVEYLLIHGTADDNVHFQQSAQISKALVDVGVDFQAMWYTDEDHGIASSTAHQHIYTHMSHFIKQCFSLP

## diprotin A
[1]
  degradation of GRF to GRF[3-44] in plasma: prevented

## CC(C)N1CCC(c2ccccc2)(c2ccccc2)CC1 [Prodipine, Pro-Pro-diphenyl-phosphonate]
[2]
  cardiac allograft survival: 14 day

## CC(C)[C@H](N)C(=O)N1CCC[C@H]1B(O)O [Val-Boro-Pro]
[3]
  hematopoiesis: stimulated hematopoiesis
